Test results taken from patent publication US5672715A, “Herbicidal substituted 3-aryl-pyrazoles” (Monsanto Company, priority 1995, dated 1997).

Columns and labels:
Type in all cases: in vivo
[1] = tested on: Blackgrass; assay: pre-emergence herbicide test; settings: Alopecurus myosuroides, pre-emergence, 0.25 lb/A; read-out: % plant inhibition
Outline: (§1)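 Herbicidal effect was assessed as percent inhibition about 14 days after sowing. A known amount of compound was added to the covering topsoil, and the pans were subirrigated in a greenhouse.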

[2] = tested on: Birdseye Speedwell; assay: pre-emergence herbicide test; settings: pre-emergence, 0.25 lb/A; read-out: % plant inhibition
Outline: as §1

[3] = tested on: Wild Oats; assay: pre-emergence herbicide test; settings: Avena fatua, pre-emergence, 0.25 lb/A; read-out: % plant inhibition
Outline: as §1

[4] = tested on: Common Chickweed; assay: pre-emergence herbicide test; settings: pre-emergence, 0.25 lb/A; read-out: % plant inhibition
Outline: as §1

[5] = tested on: Corn; assay: pre-emergence herbicide test; settings: Zea mays, pre-emergence, 0.25 lb/A; read-out: % plant inhibition
Outline: as §1

[6] = tested on: Downy Brome; assay: pre-emergence herbicide test; settings: Bromus tectorum, pre-emergence, 0.25 lb/A; read-out: % plant inhibition
Outline: as §1

[7] = tested on: Cocklebur; assay: pre-emergence herbicide test; settings: Xanthium strumarium, pre-emergence, 0.25 lb/A; read-out: % plant inhibition
Outline: as §1

[8] = tested on: Velvetleaf; assay: pre-emergence herbicide test; settings: Abutilon theophrasti, pre-emergence, 0.25 lb/A; read-out: % plant inhibition
Outline: as §1

[9] = tested on: Green Foxtail; assay: pre-emergence herbicide test; settings: Setaria viridis, pre-emergence; 0.25 lb/A; read-out: % plant inhibition
Outline: as §1

[10] = tested on: Bedstraw Catchweed; assay: pre-emergence herbicide test; settings: Galium aparine, pre-emergence, 0.25 lb/A; read-out: % plant inhibition
Outline: as §1

[11] = tested on: Seedling Johnsongrass; assay: pre-emergence herbicide test; settings: Sorghum halepense, pre-emergence, 0.25 lb/A; read-out: % plant inhibition
Outline: as §1

[12] = tested on: Rape; assay: pre-emergence herbicide test; settings: pre-emergence, 0.25 lb/A; read-out: % plant inhibition
Outline: as §1

[13] = tested on: Soybean; assay: pre-emergence herbicide test; settings: Glycine max, pre-emergence, 0.25 lb/A; read-out: % plant inhibition
Outline: as §1

[14] = tested on: Barnyardgrass; assay: pre-emergence herbicide test; settings: Echinochloa crus-galli, pre-emergence, 0.25 lb/A; read-out: % plant inhibition
Outline: as §1

[15] = tested on: Giant Foxtail; assay: pre-emergence herbicide test; settings: Setaria faberi, pre-emergence, 0.25 lb/A; read-out: % plant inhibition
Outline: as §1

[16] = tested on: Morning Glory; assay: pre-emergence herbicide test; settings: Ipomoea, pre-emergence, 0.25 lb/A; read-out: % plant inhibition
Outline: as §1

[17] = tested on: Wheat; assay: pre-emergence herbicide test; settings: Triticum aestivum, pre-emergence, 0.25 lb/A; read-out: % plant inhibition
Outline: as §1

[18] = tested on: Blackgrass; assay: post-emergence herbicide test; settings: Alopecurus myosuroides, post-emergence, 0.25 lb/A; read-out: % plant inhibition
Outline: (§2)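 Activity is given as percent inhibition of each species following foliar application. Pots were sprayed individually in a chamber once plants reached two to three weeks.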

[19] = tested on: Birdseye Speedwell; assay: post-emergence herbicide test; settings: post-emergence, 0.25 lb/A; read-out: % plant inhibition
Outline: as §2

[20] = tested on: Wild Oats; assay: post-emergence herbicide test; settings: Avena fatua, post-emergence, 0.25 lb/A; read-out: % plant inhibition
Outline: as §2

[21] = tested on: Common Chickweed; assay: post-emergence herbicide test; settings: post-emergence, 0.25 lb/A; read-out: % plant inhibition
Outline: as §2

[22] = tested on: Corn; assay: post-emergence herbicide test; settings: Zea mays, post-emergence, 0.25 lb/A; read-out: % plant inhibition
Outline: as §2

[23] = tested on: Downy Brome; assay: post-emergence herbicide test; settings: Bromus tectorum, post-emergence, 0.25 lb/A; read-out: % plant inhibition
Outline: as §2

[24] = tested on: Cocklebur; assay: post-emergence herbicide test; settings: Xanthium strumarium, post-emergence, 0.25 lb/A; read-out: % plant inhibition
Outline: as §2

[25] = tested on: Velvetleaf; assay: post-emergence herbicide test; settings: Abutilon theophrasti, post-emergence, 0.25 lb/A; read-out: % plant inhibition
Outline: as §2

[26] = tested on: Green Foxtail; assay: post-emergence herbicide test; settings: Setaria viridis, post-emergence, 0.25 lb/A; read-out: % plant inhibition
Outline: as §2

[27] = tested on: Bedstraw Catchweed; assay: post-emergence herbicide test; settings: Galium aparine, post-emergence, 0.25 lb/A; read-out: % plant inhibition
Outline: as §2

[28] = tested on: Seedling Johnsongrass; assay: post-emergence herbicide test; settings: Sorghum halepense, post-emergence, 0.25 lb/A; read-out: % plant inhibition
Outline: as §2

[29] = tested on: Rape; assay: post-emergence herbicide test; settings: post-emergence, 0.25 lb/A; read-out: % plant inhibition
Outline: as §2

[30] = tested on: Soybean; assay: post-emergence herbicide test; settings: Glycine max, post-emergence, 0.25 lb/A; read-out: % plant inhibition
Outline: as §2

[31] = tested on: Barnyardgrass; assay: post-emergence herbicide test; settings: Echinochloa crus-galli, post-emergence, 0.25 lb/A; read-out: % plant inhibition
Outline: as §2

[32] = tested on: Giant Foxtail; assay: post-emergence herbicide test; settings: Setaria faberi, post-emergence, 0.25 lb/A; read-out: % plant inhibition
Outline: as §2

[33] = tested on: Morning Glory; assay: post-emergence herbicide test; settings: Ipomoea, post-emergence, 0.25 lb/A; read-out: % plant inhibition
Outline: as §2

[34] = tested on: Wheat; assay: post-emergence herbicide test; settings: Triticum aestivum, post-emergence, 0.25 lb/A; read-out: % plant inhibition
Outline: as §2

Row | Compound | inhibition at 280.212 g/ha [1] [%] | inhibition at 280.212 g/ha [2] [%] | inhibition at 280.212 g/ha [3] [%] | inhibition at 280.212 g/ha [4] [%] | inhibition at 280.212 g/ha [5] [%] | inhibition at 280.212 g/ha [6] [%] | inhibition at 280.212 g/ha [7] [%] | inhibition at 280.212 g/ha [8] [%] | inhibition at 280.212 g/ha [9] [%] | inhibition at 280.212 g/ha [10] [%] | inhibition at 280.212 g/ha [11] [%] | inhibition at 280.212 g/ha [12] [%] | inhibition at 280.212 g/ha [13] [%] | inhibition at 280.212 g/ha [14] [%] | inhibition at 280.212 g/ha [15] [%] | inhibition at 280.212 g/ha [16] [%] | inhibition at 280.212 g/ha [17] [%] | inhibition at 280.212 g/ha [18] [%] | inhibition at 280.212 g/ha [19] [%] | inhibition at 280.212 g/ha [20] [%] | further results
1 | Cc1c(-c2cc(C(=O)OC3CCOC3)c(Cl)cc2F)nn(C)c1C(F)(F)F (centres unmarked) [Compound 25] | 98 | 100 | 90 | 100 | 45 | 10 | 35 | 80 | 100 | 85 | 99 | 35 | 5 | 95 | 100 | 55 | 0 | 40 | 95 | 35 | inhibition at 280.212 g/ha [21]: 90%; inhibition at 280.212 g/ha [22]: 20%; inhibition at 280.212 g/ha [23]: 50%; inhibition at 280.212 g/ha [24]: 90%; inhibition at 280.212 g/ha [25]: 100%; inhibition at 280.212 g/ha [26]: 65%; inhibition at 280.212 g/ha [27]: 65%; inhibition at 280.212 g/ha [28]: 85%; inhibition at 280.212 g/ha [29]: 40%; inhibition at 280.212 g/ha [30]: 60%; inhibition at 280.212 g/ha [31]: 85%; inhibition at 280.212 g/ha [32]: 75%; inhibition at 280.212 g/ha [33]: 90%; inhibition at 280.212 g/ha [34]: 16%
2 | CC(C)OC(=O)c1cc(-c2nn(C)c(C(F)(F)F)c2CF)c(F)cc1Cl [Compound 15, 2-Chloro-4-fluoro-5-[4-(fluoromethyl)-1-methyl-5-(trifluoromethyl)-1H-pyrazol-3-yl]benzoic acid, 1-methylethyl ester] | 100 | 100 | 90 | 100 | 93 | 100 | 90 | 97 | 100 | 98 | 100 | 60 | 20 | 100 | 100 | 93 | 0 | 100 | 100 | 100 | inhibition at 280.212 g/ha [21]: 100%; inhibition at 280.212 g/ha [22]: 65%; inhibition at 280.212 g/ha [23]: 100%; inhibition at 280.212 g/ha [24]: 99%; inhibition at 280.212 g/ha [25]: 100%; inhibition at 280.212 g/ha [26]: 100%; inhibition at 280.212 g/ha [27]: 100%; inhibition at 280.212 g/ha [28]: 100%; inhibition at 280.212 g/ha [29]: 100%; inhibition at 280.212 g/ha [30]: 90%; inhibition at 280.212 g/ha [31]: 99%; inhibition at 280.212 g/ha [32]: 90%; inhibition at 280.212 g/ha [33]: 98%; inhibition at 280.212 g/ha [34]: 20%
3 | Cc1c(-c2cc(C(=O)OCc3ccccc3)c(Cl)cc2F)nn(C)c1C(F)(F)F [Compound 41] | 15 | 100 | 10 | 55 | 0 | 30 | 25 | 90 | 100 | 60 | 50 | 5 | 0 | 50 | 40 | 0 | 3 | 20 | 100 | 20 | inhibition at 280.212 g/ha [21]: 98%; inhibition at 280.212 g/ha [22]: 35%; inhibition at 280.212 g/ha [23]: 30%; inhibition at 280.212 g/ha [24]: 95%; inhibition at 280.212 g/ha [25]: 99%; inhibition at 280.212 g/ha [26]: 90%; inhibition at 280.212 g/ha [27]: 100%; inhibition at 280.212 g/ha [28]: 70%; inhibition at 280.212 g/ha [29]: 40%; inhibition at 280.212 g/ha [30]: 15%; inhibition at 280.212 g/ha [31]: 65%; inhibition at 280.212 g/ha [32]: 5%; inhibition at 280.212 g/ha [33]: 75%; inhibition at 280.212 g/ha [34]: 15%
4 | Cc1c(-c2cc(C(=O)OCC(C)C)c(Cl)cc2F)nn(C)c1C(F)(F)F [Compound 45] | 100 | 100 | 50 | 80 | 0 | 98 | 50 | 98 | 100 | 98 | 98 | 5 | 0 | 75 | 100 | 30 | 0 | 98 | 100 | 80 | inhibition at 280.212 g/ha [21]: 100%; inhibition at 280.212 g/ha [22]: 55%; inhibition at 280.212 g/ha [23]: 95%; inhibition at 280.212 g/ha [24]: 100%; inhibition at 280.212 g/ha [25]: 100%; inhibition at 280.212 g/ha [26]: 100%; inhibition at 280.212 g/ha [27]: 100%; inhibition at 280.212 g/ha [28]: 95%; inhibition at 280.212 g/ha [29]: 50%; inhibition at 280.212 g/ha [30]: 35%; inhibition at 280.212 g/ha [31]: 75%; inhibition at 280.212 g/ha [32]: 80%; inhibition at 280.212 g/ha [33]: 50%; inhibition at 280.212 g/ha [34]: 17%
5 | Cc1c(-c2cc(CS)c(Cl)cc2F)nn(C)c1C(F)(F)F [Compound 30] | 20 | 50 | 0 | 35 | 15 | 5 | 25 | 90 | 98 | 40 | 95 | 5 | 20 | 70 | 25 | 20 | 0 | 30 | 98 | 25 | inhibition at 280.212 g/ha [21]: 75%; inhibition at 280.212 g/ha [22]: 20%; inhibition at 280.212 g/ha [23]: 25%; inhibition at 280.212 g/ha [24]: 60%; inhibition at 280.212 g/ha [25]: 85%; inhibition at 280.212 g/ha [26]: 65%; inhibition at 280.212 g/ha [27]: 40%; inhibition at 280.212 g/ha [28]: 70%; inhibition at 280.212 g/ha [29]: 60%; inhibition at 280.212 g/ha [30]: 65%; inhibition at 280.212 g/ha [31]: 60%; inhibition at 280.212 g/ha [32]: 20%; inhibition at 280.212 g/ha [33]: 65%; inhibition at 280.212 g/ha [34]: 15%
